{"source": "patent US20010056085A1", "about": "“Methods of using vesicant drug formulations” (priority 1996, published 2001)", "key": {"[1]": {"experiment": "Effect of UVA irradiation on the absorbance spectrum of DOX (350-600 nm; KDOX at 480 nm)", "type": "physicochemical", "conditions": "for photoenhancing effect on riboflavin-mediated UVA destruction of DOX (absorbance at 480 nm): 100 μM compound, 0.5 μM riboflavin in PBS without Ca2+ and Mg2+, 0 to 20 minutes UVA"}, "[2]": {"experiment": "Half-life of ADR destruction by UVA light in the presence of test compounds (decrease in absorbance at 480 nm)", "type": "physicochemical", "conditions": "UVA light; for Half-Life of ADR Destruction, 100 μM Test Compound and 0.5 μM Riboflavin: 100 μM test compound with 0.5 μM riboflavin; for Half-Life of ADR Destruction, 100 μM Test Compound: 100 μM test compound alone"}, "[3]": {"test_system": "P388 or P388/ADR cell lines", "experiment": "Effect of catalase on the growth inhibitory effect of DOX", "type": "cell-based, murine", "conditions": "30 U/ml catalase"}, "[4]": {"test_system": "P388 cells and P388/ADR cells", "experiment": "Catalase protection of cells from UVA irradiation", "type": "cell-based, murine", "conditions": "0.01 to 100 U/ml catalase in PBS or RPMI 1640"}, "P388 cells": {"test_system": "P388 cells", "experiment": "In vitro cell culture assay: growth inhibitory effect of UVA-irradiated DOX solutions", "type": "cell-based, murine", "experimental": "Cell culture was carried out as previously described (Ramu et al. [1984] Cancer Res., 44:144). Briefly, P388 murine leukemia cells (i.e., P388D1 available from the ATCC; […] An inoculum of cells was transferred to fresh medium once every 4 days to maintain exponential growth. […] Drug solutions (0.2 ml/well) in 24 well culture clusters without the lid were irradiated in a laminar flow hood with 3 Blacklight Blue 40 W lamps (Vilber Lourmat, Marne la Vallee, France)."}}, "note": "“Also recorded” adds a separate entry of the source."}
{"compound": "N[C@@H](Cc1ccc(O)cc1)C(=O)O", "note": "[4-Hydroxy Phenylalanine (Tyrosine), 4-Hydroxy Phenylalanine]", "values": [{"measurement": "photoenhancing effect on riboflavin-mediated UVA destruction of DOX (absorbance at 480 nm)", "setting": "[1]; 20 μM DOX", "value": "enhanced; also recorded: greatest photenhancing effect"}, {"measurement": "effect on the absorbance spectrum of DOX under UVA without riboflavin", "setting": "[1]; 100 μM tyrosine, 20 μM DOX in PBS pH 7.2", "value": "essentially no impact on the absorbance spectrum of DOX"}]}
{"compound": "N[C@@H](Cc1ccccc1)C(=O)O", "note": "[Phenylalanine]", "values": [{"measurement": "photoenhancing effect on riboflavin-mediated UVA destruction of DOX (absorbance at 480 nm)", "setting": "[1]; 20 μM DOX", "value": "did not enhance"}, {"measurement": "Half-Life of ADR Destruction, 100 μM Test Compound and 0.5 μM Riboflavin", "setting": "[2]", "value": 75.3, "unit": "min"}]}
{"compound": "COc1cccc2c1C(=O)c1c(O)c3c(c(O)c1C2=O)C[C@@](O)(C(=O)CO)C[C@@H]3O[C@H]1C[C@H](N)[C@H](O)[C@H](C)O1.Cl", "note": "[DOX, Doxorubicin HCl, reference compound]", "values": [{"measurement": "first order rate constant of the decrease in DOX absorbance (KDOX)", "setting": "[1]; 20 μM DOX in RPMI medium 1640 without phenol red, 50 mM HEPES pH 7.2, UVA", "value": 0.000417, "unit": "s⁻¹"}, {"measurement": "UVA irradiation required to destroy the DOX absorbance spectrum", "setting": "[1]; 20 μM DOX, 2 μM riboflavin and 5 nM DABCO (FIG. 12)", "value": 20, "unit": "min"}, {"measurement": "UVA irradiation required to eliminate the DOX absorbance spectrum", "setting": "[1]; 20 μM DOX, 20 μM riboflavin, 5 mM DABCO in PBS (FIG. 13B)", "value": "less than 2 minutes"}, {"measurement": "time in which the DOX absorbance spectrum disappeared", "setting": "[1]; 20 μM DOX, 20 μM riboflavin, 5 mM DABCO, PBS without Ca2+ and Mg2+ (FIG. 13C)", "value": "less than 1 minute"}]}
{"compound": "O=C1O[C@H]([C@@H](O)CO)C(O)=C1O", "note": "[ascorbate, ascorbic acid]", "values": [{"measurement": "effect on the UVA-induced decrease of DOX absorbance", "setting": "[1]; 0.16 mM ascorbate, 20 μM DOX in RPMI medium 1640", "value": "this decrease was smaller"}, {"measurement": "effect on the UVA-induced decrease of DOX absorbance", "setting": "[1]; 1.6 mM ascorbate, 20 μM DOX in RPMI medium 1640, 20 minutes of irradiation", "value": "no changes in the absorbance spectrum of DOX"}]}
{"compound": "catalase", "values": [{"measurement": "interference with the growth inhibitory effect of DOX", "setting": "[3]", "value": "does not interfere with the growth inhibitory effect of DOX"}, {"measurement": "effect on the rate of destruction of DOX by UVA irradiation", "setting": "[1]; 150 units/ml catalase, 20 μM DOX in RPMI medium 1640", "value": "did not affect the rate of destruction of DOX"}, {"measurement": "protection of cells from damage (inhibition of growth) by protracted UVA irradiation", "setting": "[4]", "value": "protected the cells from damage"}]}
{"compound": "Cc1cc2nc3c(=O)[nH]c(=O)nc-3n(C[C@H](O)[C@H](O)[C@H](O)COP(=O)(O)OP(=O)(O)OC[C@H]3O[C@@H](n4cnc5c(N)ncnc54)[C@H](O)[C@@H]3O)c2cc1C", "note": "[FAD, flavin adenine dinucleotide]", "values": [{"measurement": "raise of concentration needed to obtain an effect comparable to riboflavin or FMN", "setting": "P388 cells; UVA effect on DOX", "value": 5, "unit": "fold"}, {"measurement": "effectiveness in mediating the UVA inactivation of DOX compared with riboflavin", "setting": "[1]; in the presence or absence of DABCO", "value": "not as effective as riboflavin"}]}
{"compound": "NC(Cc1c[nH]c2ccccc12)C(=O)O", "note": "(stereo not drawn) [α-Amino-Indole-3-propionic acid]", "values": [{"measurement": "photoenhancing effect on riboflavin-mediated UVA destruction of DOX (absorbance at 480 nm)", "setting": "[1]; 20 μM DOX", "value": "enhanced"}, {"measurement": "effect on destruction of DOX in a riboflavin formulation by UVA irradiation", "setting": "[1]; 100 μM tryptophan, 20 μM DOX, 0.5 μM riboflavin in PBS", "value": "enhanced"}]}
{"compound": "Cc1cc2nc3c(=O)[nH]c(=O)nc-3n(C[C@H](O)[C@H](O)[C@H](O)COP(=O)(O)O)c2cc1C", "note": "[FMN, flavin mononucleotide]", "values": [{"measurement": "effectiveness relative to FAD in mediating UVA obliteration of the DOX growth inhibitory effect", "setting": "P388 cells; 0.3 μM DOX in PBS, 8 min UVA", "value": 5, "unit": "fold"}]}
{"compound": "superoxide dismutase", "values": [{"measurement": "effect on DOX inactivation by riboflavin or riboflavin-tyrosine and UVA", "setting": "[1]; 300 U/ml SOD, 20 μM DOX in PBS", "value": "accelerates the rate at which DOX is inactivated"}]}
{"compound": "O=C(O)CN(CCN(CC(=O)O)CC(=O)O)CC(=O)O", "note": "[EDTA, ethylenediaminetetraacetic acid]", "values": [{"measurement": "photoenhancing effect on riboflavin-mediated UVA destruction of DOX (absorbance at 480 nm)", "setting": "[1]; 20 μM DOX", "value": "enhanced"}]}
{"compound": "CSCC[C@H](N)C(=O)O", "note": "[Methionine]", "values": [{"measurement": "photoenhancing effect on riboflavin-mediated UVA destruction of DOX (absorbance at 480 nm)", "setting": "[1]; 20 μM DOX", "value": "enhanced"}]}
{"compound": "O=S(=O)(O)CCN1CCN(CCO)CC1", "note": "[HEPES, N-2-hydroxyethylpiperazine-N′-2-ethanesulfonic acid]", "values": [{"measurement": "effect on riboflavin-mediated photoinactivation of DOX", "setting": "[1]; 5 mM HEPES, 20 μM DOX, riboflavin in PBS", "value": "accelerate the riboflavin-mediated photoinactivation of DOX"}]}
{"compound": "O=S(=O)(c1ccc(O)cc1)c1ccc(O)cc1", "note": "[4,4-Dihydroxy Phenylsulfone]", "values": [{"measurement": "Half-Life of ADR Destruction, 100 μM Test Compound", "setting": "[2]", "value": 43.0, "unit": "min"}, {"measurement": "Half-Life of ADR Destruction, 100 μM Test Compound and 0.5 μM Riboflavin", "setting": "[2]", "value": 43.0, "unit": "min"}]}
{"compound": "c1ccc2sccc2c1", "note": "[Thianaphthalene]", "values": [{"measurement": "Half-Life of ADR Destruction, 100 μM Test Compound and 0.5 μM Riboflavin", "setting": "[2]", "value": 50.2, "unit": "min"}]}
{"compound": "CC(C(=O)O)c1ccc(-c2ccccc2)c(F)c1", "note": "(stereo not drawn) [Flurbiprofen, 4-Phenyl-3-Fluoro-α-Methyl Phenylacetic Acid, reference compound]", "values": [{"measurement": "Half-Life of ADR Destruction, 100 μM Test Compound", "setting": "[2]", "value": 75.3, "unit": "min"}, {"measurement": "Half-Life of ADR Destruction, 100 μM Test Compound and 0.5 μM Riboflavin", "setting": "[2]", "value": 50.2, "unit": "min"}]}
{"compound": "Nc1ccc2c(O)cc(S(=O)(=O)O)cc2c1", "note": "[7-Amino-4-hydroxy-2-naphthalenesulfonic acid]", "values": [{"measurement": "Half-Life of ADR Destruction, 100 μM Test Compound and 0.5 μM Riboflavin", "setting": "[2]", "value": 30.1, "unit": "min"}]}
{"compound": "O=c1cc[nH]c(=O)[nH]1", "note": "[Uracil]", "values": [{"measurement": "Half-Life of ADR Destruction, 100 μM Test Compound and 0.5 μM Riboflavin", "setting": "[2]", "value": 50.2, "unit": "min"}]}
{"compound": "N[C@@H](Cc1c[nH]cn1)C(=O)O", "note": "[Histidine]", "values": [{"measurement": "photoenhancing effect on riboflavin-mediated UVA destruction of DOX (absorbance at 480 nm)", "setting": "[1]; 20 μM DOX", "value": "enhanced"}, {"measurement": "Half-Life of ADR Destruction, 100 μM Test Compound and 0.5 μM Riboflavin", "setting": "[2]", "value": "55.2 ± 7.1", "unit": "min"}]}
{"compound": "Nc1ccc(CO)cc1", "note": "[4-Amino Benzyl Alcohol]", "values": [{"measurement": "Half-Life of ADR Destruction, 100 μM Test Compound and 0.5 μM Riboflavin", "setting": "[2]", "value": 27.4, "unit": "min"}]}
